Some results are limits rather than exact numbers.

These results are taken from patent publication US5013757A, “Physiologically active substance Tan-931, its derivatives, their production and use” (Takeda Chemical Industries, Ltd., priority 1988, dated 1991).

Data set [1] deals with various enzymes which pertain to biosynthesis of steroid hormones. The note with it: background statement; cited from earlier work.
For a further data set, the target named is T1, human placenta aromatase (Homo sapiens, UniProt P11511).
T1 construct: The resulting pellet was used as a microsome fraction; from tissue; host or cells: human placenta, microsome fraction (148,000×g pellet)
T1 sequence (P11511 1-503): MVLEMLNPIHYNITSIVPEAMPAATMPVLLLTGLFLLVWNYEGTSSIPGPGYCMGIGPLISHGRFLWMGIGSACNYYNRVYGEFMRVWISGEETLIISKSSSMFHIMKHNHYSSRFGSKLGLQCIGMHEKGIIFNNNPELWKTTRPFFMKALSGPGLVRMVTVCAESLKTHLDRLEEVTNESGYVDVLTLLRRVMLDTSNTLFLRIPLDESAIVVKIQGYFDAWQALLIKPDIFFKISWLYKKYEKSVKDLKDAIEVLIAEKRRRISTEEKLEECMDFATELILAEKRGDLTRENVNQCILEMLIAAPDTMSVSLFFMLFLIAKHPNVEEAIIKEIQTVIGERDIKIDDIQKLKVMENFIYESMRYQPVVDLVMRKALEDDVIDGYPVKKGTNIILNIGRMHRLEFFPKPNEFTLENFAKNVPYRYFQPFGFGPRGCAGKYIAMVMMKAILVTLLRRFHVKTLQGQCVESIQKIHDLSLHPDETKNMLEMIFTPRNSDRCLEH
Nature of the data set: In vitro human placenta microsome aromatase inhibitory activity. The class given is biochemical. Conditions: androstenedione 4 μM, 37° C., 1 hour. An excerpt: (§1) The following Experiments specifically illustrate in vitro human placenta aromatase inhibitory activity and inhibition of estrogen synthesis in the rat by the compounds of the present invention.
Preparation of human placenta microsome
The method of F. A. Thompson et al. [J. Biol. Chem., 249, 5364 (1974)] was partly modified. Namely, the placenta was washed with 0.15 M KCl which was previously cooled to remove the attached membrane and large blood vessels and then sufficiently and finely cut with scissors. To the finely cut tissue was added 2 ml of cold 0.02 M phosphate buffer containing 0.25M sucrose (pH 7.4) per 1 g of the tissue and the mixture was homogenized with Polytron homogenizer (30 second×3, in ice). Then, the mixture was centrifuged at 800×g for 10 minutes and the supernatant was centrifuged at 20,000×g for 30 minutes and further at 148,000×g for 45 minutes. The resulting pellet was used as a microsome fraction. The microsome obtained was suspended in 1 ml of the above phosphate buffer per 10 g of the placenta and stored at -80° C. Upon use, it was diluted 5 to 6 times.
Determination of aromatase activity and inhibitory activity
The method of F. A. Thompson et al. [see above] was partly modified as follows.
A reaction mixture (225 μl ) containing 4-androstene-3,17-dione (4 μM ), 1,2 [^3 H]-androstenedione (140,000 dpm), NADPH (550 μM ) and the above microsome (20 μl ) and a solution containing an inhibitor or not (5 μl ) was incubated at 37° C. for 1 hour. According to this determination, [^3 H]-H2 O was formed by aromatization of androstenedione. Then, the reaction mixture was extracted with chloroform (0.5 ml) to separate layers and the aqueous layer obtained was treated with 5% activated carbon (0.25 ml) to remove the free steroid. After high-speed centrifugation, to the supernatant (0.2 ml) was added scintillator (3 ml) and radioactivity was determined with a liquid scintillation counter. By comparing the result obtained by addition of an inhibitor with that of a control sample wherein the reaction was carried out without addition of any inhibitor, an inhibitory rate (%) was calculated. The effectiveness was expressed by the concentration which was required for inhibiting 50% of the enzyme activity at the substrate (androstenedione) concentration of 4 μM

Data set [2] relates to estrogen synthesis in rat. Nature of the data set: In vivo inhibition of estrogen synthesis in PMSG-stimulated young female rats. More on the design: species or system SD rats (female, 19 days old). The method, then:
as §1
In vivo inhibition of estrogen synthesis by the compound 1 (TAN-931) was studied by the following experiment.
Five young SD rats (female, 19 days old) were used per one group. The rats of test groups were administered the compound suspended in 0.2% gum arabic-physiological saline solution subcutaneously at the doses of 25, 50 and 100 mg/kg for 4 days at 24-hour intervals. The rats of control groups (Control 1 and 2) were administered 0.2 ml of 0.2% gum arabic-physiological saline solution. After administration of the compound on the third day after initiation of the test, a single dose of 10 U/rat (s.c.) of pregnant mare's serum gonadotropin (PMSG) was administered to the rats of test groups and Control 2. […] After centrifugation, the plasma was obtained and the plasma estradiol-17 β level was determined by radio immunoassay. Further, the uterus and ovarium were removed from the rat, freed from connective tissue and the like and weighed, respectively. As the control compound for estimation of the pharmacological activity, 4-hydroxyandrostenedione (4-OHA) was used.

Another data set in a line: Acute toxicity in mice. Conditions: mouse, in vivo, sc; subcutaneous, male mice (4 weeks old). An excerpt:
Thus, the compounds (I-1) have a potent aromatase inhibitory activity and, therefore, they can be advantageously used for prevention and treatment of estrogen dependent diseases such as breast cancer, endometriosis, endometrium cancer, benign breast diseases, prostatomegaly and the like as well as for control of conception. Further, toxicity of the compounds (I-1) of the present invention is low.

The nature of a further data set: Solubility of TAN-931. The class given is physicochemical.
Where [3] appears, read: 25 mg/kg/day s.c., 4 days, PMSG.
[4] abbreviates: 50 mg/kg/day s.c., 4 days, PMSG.
[5] abbreviates: 100 mg/kg/day s.c., 4 days, PMSG.

As for `CCC1(c2ccc(N)cc2)CCC(=O)NC1=O` (centres unmarked) [aminoglutethimide], in data set [1], the “inhibition of enzymes of steroid hormone biosynthesis” value is “inhibits various enzymes”.
For the compound `Cc1ccc(NC(=O)c2cc(O)c(C(=O)c3c(O)cccc3O)c(C=O)c2)cc1` [Compound 13], the IC50 (usually the concentration needed to halve the response being measured) against human placenta aromatase is 16.1 µM.
On the same count and under the same terms, then `COc1cc(C(=O)O)cc(C=O)c1C(=O)c1c(O)cccc1O` [Compound 15], with 24 µM.
In turn, `CNC(=O)c1cc(O)c(C(=O)c2c(O)cccc2O)c(C=O)c1` [Compound 6] gave an IC50 at human placenta aromatase of 21.3 µM.
On human placenta aromatase, `COCOC(=O)c1cc(O)c(C(=O)c2c(O)cccc2O)c(C=O)c1` [Compound 3] showed an IC50 of 12.4 µM.
Regarding `CCCCCCOC(=O)c1cc(O)c(C(=O)c2c(O)cccc2O)c(C=O)c1` [Compound 5], the IC50 against human placenta aromatase was 32.3 µM.
The compound `COc1cc(C(=O)N(C)C)cc(C=O)c1C(=O)c1c(O)cccc1O` [Compound 19] showed an IC50 at human placenta aromatase of 18.3 µM.
For the compound `COc1cccc(O)c1C(=O)c1c(O)cc(C(=O)O)cc1C=O` [Compound 16], at human placenta aromatase, half-maximal inhibition (IC50) required 135 µM.
Regarding `CCCCCCNC(=O)c1cc(O)c(C(=O)c2c(O)cccc2O)c(C=O)c1` [Compound 8], the IC50 at human placenta aromatase is 17.6 µM.
`O=Cc1cc(C(=O)O)cc(O)c1C(=O)c1c(O)cccc1O` [Compound 1] gave an IC50 on human placenta aromatase of 17.2 µM. The “Plasma estradiol 17-B level” value came out at 312.8 ± 192.4 pg/mL in data set [2] (setting [3]), 80.8 ± 64.2 pg/mL in data set [2] (setting [4]) and 50.2 ± 23.5 pg/mL in data set [2] (setting [5]). Further, the “Tissue weight Ovarium” value came to 24.2 ± 6.2 mg in data set [2] (setting [3]), 16.4 ± 6.4 mg in data set [2] (setting [4]) and 14.5 ± 1.5 mg in data set [2] (setting [5]). Besides, the results for the “Tissue weight Uterus” value in data set [2] (setting [3]), in data set [2] (setting [4]) and in data set [2] (setting [5]) were 108.4 ± 15.6 mg, 89.4 ± 30.8 mg and 66.3 ± 38.0 mg, respectively. Also, in data set [2] (result in words), the “blood estrogen level raised by stimulation due to PMSG administration” value was “significantly lowered”. Also, in “Acute toxicity in mice”, the LD50 (usually the dose expected to kill half of the subjects tested) was not below 800 mg/kg. Moreover, the Solubility result in “Solubility of TAN-931” (chloroform, diethyl ether) is listed as “Slightly soluble”; in “Solubility of TAN-931” (dimethylsulfoxide (DMSO), methanol, ethanol, acetone), “Soluble”; in “Solubility of TAN-931” (water, n-hexane), “Insoluble”.
The compound `CN(C)CCNC(=O)c1cc(O)c(C(=O)c2c(O)cccc2O)c(C=O)c1` [Compound 14] had a half-maximal inhibitory concentration (IC50) against human placenta aromatase of 16.9 µM.
For the compound `C=CCNC(=O)c1cc(O)c(C(=O)c2c(O)cccc2O)c(C=O)c1` [Compound 9], the IC50 against human placenta aromatase is 15.2 µM.
The compound `O=Cc1cc(C(=O)N2CCOCC2)cc(O)c1C(=O)c1c(O)cccc1O` [Compound 11] gave an IC50 on human placenta aromatase of 16.4 µM.
Regarding `C[C@]12CCC(=O)C(O)=C1CC[C@@H]1[C@@H]2CC[C@]2(C)C(=O)CC[C@@H]12` [Compound 4-OHA, 4-hydroxyandrostenedione, reference compound], in data set [2] (setting [5]), the “Plasma estradiol 17-B level” value was 149.6 ± 76.7 pg/mL, the “Tissue weight Ovarium” value is 28.4 ± 7.9 mg, the “Tissue weight Uterus” value was determined as 85.9 ± 13.0 mg and the Weight gain is on record as 22.2 ± 1.5 g.
On to `CC(C)NC(=O)c1cc(O)c(C(=O)c2c(O)cccc2O)c(C=O)c1` [Compound 10], for which, at human placenta aromatase, 25.6 µM corresponded to half-maximal inhibition (IC50).
On the same count and under the same terms, then `COC(=O)c1cc(O)c(C(=O)c2c(O)cccc2O)c(C=O)c1` [Compound 2], with 22.1 µM; and `CN(C)C(=O)c1cc(O)c(C(=O)c2c(O)cccc2O)c(C=O)c1` [Compound 7], with 14.6 µM; and `O=Cc1cc(C(=O)O)cc(O)c1C(=O)c1c(O)ccc(Cl)c1O` [Compound 27], with 14.3 µM.
Regarding `O=Cc1cc(C(=O)N2CCCC2)cc(O)c1C(=O)c1c(O)cccc1O` [Compound 12], on human placenta aromatase, the IC50 is 23.4 µM.
Consider `O=Cc1cc(C(=O)OCc2ccccc2)cc(O)c1C(=O)c1c(O)cccc1O` [Compound 4], for which inhibition against human placenta aromatase was half-maximal at 206 µM (IC50).
On human placenta aromatase, `COc1cccc(O)c1C(=O)c1c(C=O)cc(C(=O)O)cc1OC` [Compound 17] gave an IC50 of 96.6 µM.
